Our source for the Hill coefficient values is ChEMBL document CHEMBL1125640.

A short description of the assay: Hill coefficient value of the compound.
Turning to `COC(=O)[C@@H]1[C@@H](OC(=O)c2ccccc2)CC2CC[C@H]1N2C`, the Hill coefficient stood at 0.95. The figure for `COC(=O)[C@@H]1[C@H]2CCC(C[C@H]1OC(=O)c1ccccc1)N2C` is 1.19; for `COC(=O)[C@H]1[C@@H](OC(=O)c2ccccc2)CC2CC[C@H]1N2C` it is 2.6; for `COC(=O)[C@H]1[C@H]2CCC(C[C@H]1OC(=O)c1ccccc1)N2C` it is 1.3. In turn, `COC(=O)[C@H]1[C@@H](OC(=O)c2ccccc2)C[C@@H]2CC[C@H]1N2C` (stereo in doubt; 1) gave a Hill coefficient of 0.91.

Compound `COC(=O)[C@H]1[C@@H](OC(=O)c2ccccc2)C[C@@H]2CC[C@H]1N2C` (stereo in doubt; 2) came in with a Hill coefficient of 0.96. For the compound `COC(=O)C1C2CC[C@H](C[C@H]1OC(=O)c1ccccc1)N2C` (stereo in doubt; 3), the Hill coefficient worked out at 2.81.

Turning to `COC(=O)C1C2CC[C@H](C[C@H]1OC(=O)c1ccccc1)N2C` (stereo in doubt; 4), the Hill coefficient was 0.92.
